Measured values taken from patent US7311918B2, “Rotavirus subunit vaccine” (Children's Hospital Medical Center, priority 1998, dated 2007).
“And” between values parts separate entries of the source, which are not always exact repeats. Identical values can stand only once. “Also recorded” adds a separate entry of the source.

Test system: rotavirus (EDIM viral lysate)
Format: in vivo, BALB/c mice
Conditions: mice immunized with MBP::VP6; intramuscularly with QS-21 versus intranasally with LT

Row | Substance | Serum IgG response
1 | QS-21 [reference compound] | greater IgG response

Test system: EDIM virus (murine rotavirus)
Format: in vivo, BALB/c mice
Conditions: BALB/c mice, MBP::VP6 given intranasally with the adjuvant named

Row | Substance | Reduction in shedding [%]
2 | QS-21 [reference compound] | 43

Same assay, conditions: BALB/c mice, MBP::VP6 given orally with the adjuvant named

Row | Substance | Reduction in shedding [%]
3 | QS-21 [reference compound] | 59

Same assay, conditions: mouse, in vivo

Row | Substance | % Reduction in shedding [%] | Mean reduction in rotavirus shedding (protection) | Shedding per mouse per day | Shedding, Day 7 | Shedding, Day 6
4 | Peptide 9: one of 11 overlapping synthetic peptides (18 to 31 amino acids) of the CD region of VP6, Table 10 (VLADASETMLANVTSVRQEYAI; Rotavirus VP6 fragment) | 0 | did not elicit protection | 275 |  | 
5 | Peptide 5: one of 11 overlapping synthetic peptides (18 to 31 amino acids) of the CD region of VP6, Table 10 (NGQVINTYQARFGTIVARNFDTIRLSFQLM; Rotavirus VP6 fragment) | 0 | did not elicit protection | 341 |  | 
6 | Peptide 6: 25 mer synthetic peptide of the CD region of VP6 containing the 14-amino acid sequence RLSFQLMRPPNMTP, Table 10 (RNFDTIRLSFQLMRPPNMTPAVTAL; Rotavirus VP6 fragment) | 88 | 88% | 27 | 0 | 
7 | 4: one of 11 overlapping synthetic peptides (18 to 31 amino acids) of the CD region of VP6, Table 10 (FNPVILRPNNVEVEFLLNGQVINTYQARF; Rotavirus VP6 fragment) [Peptide 4] |  | 77% |  |  | 
8 | Peptide 11: one of 11 overlapping synthetic peptides (18 to 31 amino acids) of the CD region of VP6, Table 10 (TDLITNYSPSREDNLQRVFTVASIRSMLVK; Rotavirus VP6 fragment) | 64 | 64% | 80 | 0 | 30 and 29 and 41 and 36 and 23
9 | Peptide 3: one of 11 overlapping synthetic peptides (18 to 31 amino acids) of the CD region of VP6, Table 10 (FSFPRVINSADGATTWYFNPVILRPNNVEV; Rotavirus VP6 fragment) | 57 | 57% | 96 | 0 | 
10 | RLSFQLMRPPNMTP [Peptide 6-14] |  | comparable protection to that of peptide 6; also recorded: nearly complete protection |  |  | 
11 | Peptide 7: one of 11 overlapping synthetic peptides (18 to 31 amino acids) of the CD region of VP6, Table 10 (MTPAVTALFPNAQPFEHHATVGLTLRIDSA; Rotavirus VP6 fragment) | 18 | did not elicit protection | 185 |  | 
12 | 2: one of 11 overlapping synthetic peptides (18 to 31 amino acids) of the CD region of VP6, Table 10 (PDAERFSFPRVINSADGA; Rotavirus VP6 fragment) [Peptide 2] |  | 70% |  |  | 
13 | Peptide 10: one of 11 overlapping synthetic peptides (18 to 31 amino acids) of the CD region of VP6, Table 10 (QEYAIPVGPVFPPGMNWTDLITNYSPSRED; Rotavirus VP6 fragment) | 0 | did not elicit protection | 1825 | 0 | 
